Laboratory results taken from patent publication US8501770B2 (ArQule, Inc., priority 2009, dated 2013).
Structures can show the parent of a compound that is named as a salt.

Target: Full-length inactive AKT1 (Homo sapiens, UniProt P31749)
Test: Inactive Akt Alpha Screen Assay
Format: biochemical
Conditions: values not marked with "*": AlphaScreen assay; read-out: Akt1 IC50, (AlphaScreen)
Method: AKT1 activity was assayed using the GSK3-derived biotinylated peptide substrate, crosstide (biotin-[…]), and AlphaScreen™ (Amplified Luminescent Proximity Homogeneous Assay) technology. AKT1 activation was achieved by the addition of the activating kinases PDK1 and MAPKAPK2, lipid vesicles, and ATP. The extent of peptide phosphorylation was determined using a phospho-AKT substrate antibody and acceptor beads conjugated to Protein A and donor beads conjugated to streptavidin that bind to the biotin on the peptide. Excitation of the donor beads converted ambient oxygen to excited singlet oxygen which, when in close proximity to acceptor beads, reacted with acceptor beads resulting in signal amplification.
Assay plates were incubated for 90 minutes at room temperature in the dark, and the plates were read on a Perkin Elmer Envision Multilabel plate reader (excitation wavelength: […], emission wavelength: 570 nm).

Full-length inactive AKT1, sequence (P31749 whole entry): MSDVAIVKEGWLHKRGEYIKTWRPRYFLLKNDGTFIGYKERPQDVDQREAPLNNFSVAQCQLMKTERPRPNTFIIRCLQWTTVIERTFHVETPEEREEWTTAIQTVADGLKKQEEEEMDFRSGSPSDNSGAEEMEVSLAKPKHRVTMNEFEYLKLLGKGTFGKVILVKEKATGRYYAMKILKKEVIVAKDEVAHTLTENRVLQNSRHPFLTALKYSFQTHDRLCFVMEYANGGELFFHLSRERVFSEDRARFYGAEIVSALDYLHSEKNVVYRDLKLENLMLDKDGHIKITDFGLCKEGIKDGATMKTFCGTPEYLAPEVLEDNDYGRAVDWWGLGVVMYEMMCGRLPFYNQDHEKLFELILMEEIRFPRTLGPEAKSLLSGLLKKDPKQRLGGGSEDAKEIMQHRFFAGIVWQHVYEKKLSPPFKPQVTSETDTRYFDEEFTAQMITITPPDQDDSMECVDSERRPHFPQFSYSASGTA

| Structure (SMILES) | IC50 [nM] |
| --- | --- |
| COc1ccc2nc(-c3cccnc3N)n(-c3ccc(C(C)(C)C)cc3)c2n1 [Example 8] | 20600 |
| CC(C)(C)OC(=O)NCc1ccc(-n2c(-c3cccnc3N)nc3cccnc32)cc1 [Example 9] | 2470 |
| Nc1ncccc1-c1nc2cccnc2n1-c1ccc(CNC(=O)c2cccnc2)cc1 [Example 12] | 211 |
| CNS(=O)(=O)Cc1ccc(-n2c(-c3cccnc3N)nc3cccnc32)cc1 [Example 13] | 507 |
| Nc1ncccc1-c1nc2cccnc2n1-c1ccc(CN2CCOCC2)cc1 [Example 15] | 1790 |
| Nc1ncccc1-c1nc2cccnc2n1-c1ccc(C2CCCCC2)cc1 [Example 17] | 3900 |
| Nc1ncccc1-c1nc2cccnc2n1-c1ccc(CNC(=O)c2ccccn2)cc1 [Example 19] | 344 |
| Nc1ncccc1-c1nc2cccnc2n1-c1ccc(CNC(=O)c2nccc3ccccc23)cc1 [Example 20] | 354 |
| Nc1ncccc1-c1nc2cccnc2n1-c1ccc(CNCc2ccccc2)cc1 [Example 37] | 205 |
| Nc1ncccc1-c1nc2cccnc2n1-c1ccc(S(=O)(=O)N2CCCCC2)cc1 [Example 38] | 4310 |
| Nc1ncccc1-c1nc2cccnc2n1-c1ccc(CNC(=O)c2ccc(Br)cc2)cc1 [Example 40] | 89 |
| Nc1ncccc1-c1nc2cccnc2n1-c1ccc(CNC(=O)CC(c2ccccc2)c2ccccc2)cc1 [Example 42] | 2010 |
| CC(=O)Nc1ccccc1C(=O)NCc1ccc(-n2c(-c3cccnc3N)nc3cccnc32)cc1 [Example 43] | 1410 |
| Nc1ncccc1-c1nc2cccnc2n1-c1ccc(CNC(=O)c2ccc(OC(F)(F)F)cc2)cc1 [Example 47] | 378 |
| Nc1ncccc1-c1nc2cccnc2n1-c1ccc(CNC(=O)c2cccs2)cc1 [Example 48] | 196 |
| Nc1ncccc1-c1nc2cccnc2n1-c1ccc(CNC(=O)c2cccc(F)c2)cc1 [Example 49] | 84 |
| COc1ccccc1C(=O)NCc1ccc(-n2c(-c3cccnc3N)nc3cccnc32)cc1 [Example 50] | 2610 |
| CC(C)(C)C(=O)NCc1ccc(-n2c(-c3cccnc3N)nc3cccnc32)cc1 [Example 52, N-{4-[2-(2-aminopyridin-3-yl)-3H-imidazo[4,5-b]pyridin-3-yl]benzyl}-2,2-dimethylpropanamide] | 2770 |
| Cc1cccc(C(=O)NCc2ccc(-n3c(-c4cccnc4N)nc4cccnc43)cc2)c1 [Example 53] | 122 |
| COc1ccc(C(=O)NCc2ccc(-n3c(-c4cccnc4N)nc4cccnc43)cc2)cc1 [Example 54] | 711 |
| CNc1ccccc1C(=O)NCc1ccc(-n2c(-c3cccnc3N)nc3cccnc32)cc1 [Example 57] | 1520 |
| Nc1ncccc1-c1nc2cccnc2n1-c1ccc(CNC(=O)c2ccc(C(F)(F)F)cc2)cc1 [Example 63] | 790 |
| Nc1ncccc1-c1nc2cccnc2n1-c1ccc(CNC(=O)c2ccc3c(c2)CCO3)cc1 [Example 64] | 1130 |
| Cc1ccccc1C(=O)NCc1ccc(-n2c(-c3cccnc3N)nc3cccnc32)cc1 [Example 70] | 189 |
| CC(=O)Nc1ccc(C(=O)NCc2ccc(-n3c(-c4cccnc4N)nc4cccnc43)cc2)cc1 [Example 71] | 605 |

| Structure (SMILES) | IC50 [nM] |
| --- | --- |
| Nc1ncccc1-c1nc2cccnc2n1-c1ccc(CNC(=O)CC2CCCC2)cc1 [Example 73] | 2610 |
| Nc1ncccc1-c1nc2cccnc2n1-c1ccc(CNC(=O)C2Cc3ccccc3C2)cc1 [Example 75] | 179 |
| COc1cccc(C(=O)NCc2ccc(-n3c(-c4cccnc4N)nc4cccnc43)cc2)c1 [Example 77] | 417 |
| Nc1ncccc1-c1nc2cccnc2n1-c1ccc(CNC(=O)c2ccccc2-n2cccc2)cc1 [Example 78] | 307 |
| CC1=NN(c2ccc(C(=O)NCc3ccc(-n4c(-c5cccnc5N)nc5cccnc54)cc3)cc2)C(=O)C1 [Example 79] | 1110 |
| Nc1ncccc1-c1nc2cccnc2n1-c1ccc(CNC(=O)c2ccc(F)cc2)cc1 [Example 81] | 1370 |
| Nc1ncccc1-c1nc2cccnc2n1-c1ccc(CNC(=O)Nc2ccccc2Cl)cc1 [Example 90] | 394 |
| Nc1ncccc1-c1nc2cccnc2n1-c1ccc(CNS(=O)(=O)c2cccnc2)cc1 [Example 94] | 142 |
| Nc1ncccc1-c1nc2cccnc2n1-c1ccc(CNS(=O)(=O)c2ccsc2)cc1 [Example 100] | 158 |
| Nc1ccc(-n2c(-c3cccnc3N)nc3cccnc32)cc1 [Example 106, hydrochloride] | 2530 |
| Nc1ncccc1-c1nc2cccnc2n1-c1ccc(CC(=O)N2CCC(n3c(=O)[nH]c4ccccc43)CC2)cc1 [Example 107] | 1430 |
| Cn1ccc(S(=O)(=O)NCc2ccc(-n3c(-c4cccnc4N)nc4cccnc43)cc2)n1 [Example 109, hydrochloride] | 860 |
| CCOC(=O)Cc1ccc(-n2c(-c3cccnc3N)nc3cccnc32)cc1 [Example 113] | 610 |
| Cn1c(NC(=O)Cc2ccc(-n3c(-c4cccnc4N)nc4cccnc43)cc2)nc2ccccc21 [Example 114] | 579 |
| COc1ccc(NC(=O)Cc2ccc(-n3c(-c4cccnc4N)nc4cccnc43)cc2)c(OC)c1 [Example 116] | 595 |
| COc1cccc(NC(=O)Cc2ccc(-n3c(-c4cccnc4N)nc4cccnc43)cc2)c1 [Example 119, hydrochloride] | 233 |
| Cc1ccc2nc(NC(=O)Cc3ccc(-n4c(-c5cccnc5N)nc5cccnc54)cc3)sc2c1 [Example 121, hydrochloride] | 160 |
| Cc1ccc2cc(NC(=O)Cc3ccc(-n4c(-c5cccnc5N)nc5cccnc54)cc3)ccc2n1 [Example 123, hydrochloride] | 128 |
| Cc1ccc(NC(=O)Cc2ccc(-n3c(-c4cccnc4N)nc4cccnc43)cc2)cc1 [Example 127] | 108 |
| COc1ccc(NC(=O)Cc2ccc(-n3c(-c4cccnc4N)nc4cccnc43)cc2)cc1F [Example 128] | 216 |
| Nc1ncccc1-c1nc2cc(F)cnc2n1-c1ccc(CNC(=O)c2ccccc2)cc1 [Example 133, N-(4-(2-(2-aminopyridin-3-yl)-6-fluoro-3H-imidazo[4,5-b]pyridin-3-yl)benzyl)benzamide] | 106 |
| Nc1ccccc1-c1cnc2c(c1)nc(-c1cccnc1N)n2-c1ccc(CNC(=O)c2ccccc2)cc1 [Example 134, N-{4-[6-(2-aminophenyl)-2-(2-aminopyridin-3-yl)-3H-imidazo[4,5-b]pyridin-3-yl]benzyl}benzamide] | 1600 |
| CCOc1cccc(-c2cnc3c(c2)nc(-c2cccnc2N)n3-c2ccc(CNC(=O)c3ccccc3)cc2)c1 [Example 135, N-{4-[2-(2-aminopyridin-3-yl)-6-(3-ethoxyphenyl)-3H-imidazo[4,5-b]pyridin-3-yl]benzyl}benzamide] | 1800 |
| Nc1ncccc1-c1nc2cc(-c3ccsc3)cnc2n1-c1ccc(CNC(=O)c2ccccc2)cc1 [Example 137, N-{4-[2-(2-aminopyridin-3-yl)-6-thiophen-3-yl-3H-imidazo[4,5-b]pyridin-3-yl]benzyl}benzamide] | 50 |
| CS(=O)(=O)c1ccc(-c2cnc3c(c2)nc(-c2cccnc2N)n3-c2ccc(CNC(=O)c3ccccc3)cc2)cc1 [Example 138, N-(4-{2-(2-aminopyridin-3-yl)-6-[4-(methylsulfonyl)phenyl]-3H-imidazo[4,5-b]pyridin-3-yl}benzyl)benzamide] | 120 |
